Like-named read-outs stand apart in the source and are kept apart here.
Experiments:
[1] = system: CYP2D6
[2] = system: CYP2C19; test: dosing recommendation per CYP2C19 metabolizer subgroup as percentage of usual population dose (Equations 4-6)
Source text: Assuming the goal is to maintain the same AUC for all three subpopulations of patients, the following subpopulation dosing relationships hold: DPM=DEM*(AUCEM/AUCPM) OR DPM=DEM*R if R=(AUCEM/AUCPM) (Equation 2) DIM=DEM*(AUCEM/AUCIM) OR DIM=DEM*S if S=(AUCEM/AUCIM) (Equation 3)
By substituting equations 2 and 3 into equation 1, and then rearranging the equation to solve for the percent dose adjustment needed for each subgroup relative to the population dose: DEM(%)=100/(fEM+fIM*S+fPM*R) (Equation 4) DPM(%)=R*DEM (Equation 5) DIM(%)=S*DEM (Equation 6) Equations 4, 5, and 6 show how the dosing for the more homogeneous subgroups is determined and how the dosing results are expressed as a fraction of the clinician's usual heterogeneous whole group dosages. Determining “Minimal Dose Adjustment Units”
Example: The approach in the previous section leads to individualized initial drug dose recommendations for each of the 3 subgroups (extensive, poor and intermediate metabolizers). Each subgroup represents a specific number of functional alleles for the specific DME (extensive metabolizers have 2 functional, intermediate metabolizers have 1 functional and poor metabolizers have 0 functional). The resultant dosing recommendations are expressed as percentages of the clinician's usual starting dose. It is possible to investigate the effect of increasing numbers of non-functional alleles using these new dosing recommendations. For example, if DRX % is the dosing recommendation for subgroup X expressed as a percentage of the clinician's usual starting dose then the following are true: Effect of […] 1 non-functional allele=(DREM %−DRIM %)/DREM % Effect of 2 non-functional allele=(DREM %−DRPM %)/DREM % Below is a spreadsheet (Table 3) that examines this for CYP2D6, CYP2C19 and CYP2C9. […] 2C9 has 2 MDA units per non-functional allele.

[3] = CYP2C19 intermediate metabolizers, percent of usual dose
[4] = CYP2C19 poor metabolizers, percent of usual dose
[5] = CYP2D6, ratio of the two effects
[6] = CYP2D6 extensive metabolizers, percent of usual dose
[7] = CYP2D6 intermediate metabolizers, percent of usual dose
[8] = CYP2D6 poor metabolizers, percent of usual dose
[9] = CYP2D6 ultrarapid metabolizers, percent of usual dose

SMILES | 1 al (effect of 1 non-functional allele) ([1]; human) | 2 al (effect of 2 non-functional alleles) ([1]; human) | 2 al/1 al ([1]; human) | EM (%) dosing recommendation ([1]; human) | IM (%) dosing recommendation ([1]; human) | PM (%) dosing recommendation ([1]; human) | UM (%) dosing recommendation ([1]; human) | further results
Cl.Cl.OCCN1CCN(CCC=C2c3ccccc3Sc3ccc(C(F)(F)F)cc32)CC1 (mixture of isomers) [flupentixol] | – | – | – | – | – | – | – | 1 al (effect of 1 non-functional allele) [1]: 0.26; 2 al (effect of 2 non-functional alleles) [1]: 0.36; 2 al/1 al [1]: 1.40; EM (%) dosing recommendation [1]: 116%; IM (%) dosing recommendation [1]: 86%; PM (%) dosing recommendation [1]: 74%; UM (%) dosing recommendation [1]: 146%
CN(C)CCC=C1c2ccccc2CCc2ccccc21 [amitryptiline] | 0.17 | 0.34 | 2.00 | 111% | 92% | 73% | 130% | 1 al (effect of 1 non-functional allele) ([2]; CYP2C19): 0.26; 2 al (effect of 2 non-functional alleles) ([2]; CYP2C19): 0.51; UM (%) dosing recommendation ([2]; CYP2C19, head prints UM, percent of usual dose): 109%; 2 al/1 al ([2]; CYP2C19, ratio of the two effects): 2.00; IM (%) dosing recommendation [2, 3]: 81%; PM (%) dosing recommendation [2, 4]: 53%
O=C1CCc2ccc(OCCCCN3CCN(c4cccc(Cl)c4Cl)CC3)cc2N1 [aripiprazole] | – | – | – | – | – | – | – | 1 al (effect of 1 non-functional allele) ([1]; CYP2D6, (DREM%-DRIM%)/DREM%): 0.19; 2 al (effect of 2 non-functional alleles) ([1]; CYP2D6, (DREM%-DRPM%)/DREM%): 0.38; 2 al/1 al [1, 5]: 2.05; EM (%) dosing recommendation [1, 6]: 113%; IM (%) dosing recommendation [1, 7]: 92%; PM (%) dosing recommendation [1, 8]: 70%; UM (%) dosing recommendation [1, 9]: 134%
CN(C)CCCC1(c2ccc(F)cc2)OCc2cc(C#N)ccc21 (stereo not shown) [citalopram] | 0.01 | 0.03 | – | 101% | 100% | 98% | 102% | 1 al (effect of 1 non-functional allele) ([2]; human): 0.22; 2 al (effect of 2 non-functional alleles) ([2]; human): 0.44; 2 al/1 al ([2]; human): 1.96; IM (%) dosing recommendation ([2]; human): 84%; PM (%) dosing recommendation ([2]; human): 61%; UM (%) dosing recommendation ([2]; human): 108%
CN(C)CCCN1c2ccccc2CCc2ccc(Cl)cc21 [clomipramine] | – | – | – | – | – | – | – | 1 al (effect of 1 non-functional allele) ([2]; human): 0.28; 2 al (effect of 2 non-functional alleles) ([2]; human): 0.44; IM (%) dosing recommendation ([2]; human): 79%; UM (%) dosing recommendation ([2]; human): 110%
CN1CCN(C2=Nc3cc(Cl)ccc3Nc3ccccc32)CC1 [clozapine] | −0.11 | −0.20 | – | 94% | 104% | 113% | 84% | 1 al (effect of 1 non-functional allele) ([2]; human): 0.13; 2 al (effect of 2 non-functional alleles) ([2]; human): 0.25; 2 al/1 al ([2]; human): 2.00; IM (%) dosing recommendation ([2]; human): 91%; PM (%) dosing recommendation ([2]; human): 78%; UM (%) dosing recommendation ([2]; human): 104%
CNCCCN1c2ccccc2CCc2ccccc21 [desipramine] | 0.34 | 0.66 | 1.98 | 125% | 83% | 42% | 167% | –
CN(C)CCC=C1c2ccccc2COc2ccccc21 [doxepin] | 0.35 | 0.72 | – | 127% | 82% | 36% | 173% | 1 al (effect of 1 non-functional allele) ([2]; human): 0.13; 2 al (effect of 2 non-functional alleles) ([2]; human): 0.54; IM (%) dosing recommendation ([2]; human): 91%; PM (%) dosing recommendation ([2]; human): 46%
CNCCC(Oc1ccc(C(F)(F)F)cc1)c1ccccc1 (stereo not shown) [fluoxetine] | 0.12 | 0.27 | – | – | 94% | 78% | 120% | 1 al (effect of 1 non-functional allele) ([2]; CYP2C19): 0.20; 2 al (effect of 2 non-functional alleles) ([2]; CYP2C19): 0.35; IM (%) dosing recommendation [2, 3]: 86%; PM (%) dosing recommendation [2, 4]: 70%
CNCCC=C1c2ccccc2CCc2ccccc21 [nortriptyline] | 0.19 | 0.55 | 2.87 | 119% | 96% | 53% | 152% | –
Fc1ccc([C@@H]2CCNC[C@H]2COc2ccc3c(c2)OCO3)cc1 [paroxetine] | – | – | – | – | – | – | – | 1 al (effect of 1 non-functional allele) ([1]; CYP2D6, (DREM%-DRIM%)/DREM%): 0.21; 2 al (effect of 2 non-functional alleles) ([1]; CYP2D6, (DREM%-DRPM%)/DREM%): 0.42; 2 al/1 al [1, 5]: 2.00; EM (%) dosing recommendation [1, 6]: 114%; IM (%) dosing recommendation [1, 7]: 90%; PM (%) dosing recommendation [1, 8]: 66%; UM (%) dosing recommendation [1, 9]: 138%
OCCN1CCN(CCCN2c3ccccc3Sc3ccc(Cl)cc32)CC1 [perphenazine] | – | – | – | – | – | – | – | 1 al (effect of 1 non-functional allele) ([1]; CYP2D6, (DREM%-DRIM%)/DREM%): 0.38; 2 al (effect of 2 non-functional alleles) ([1]; CYP2D6, (DREM%-DRPM%)/DREM%): 0.76; 2 al/1 al [1, 5]: 2.00; EM (%) dosing recommendation [1, 6]: 129%; IM (%) dosing recommendation [1, 7]: 80%; PM (%) dosing recommendation [1, 8]: 31%; UM (%) dosing recommendation [1, 9]: 178%
Cc1nc2n(c(=O)c1CCN1CCC(c3noc4cc(F)ccc34)CC1)CCCC2 [risperidone] | 0.09 | – | – | – | – | – | – | –
COc1ccc(C(CN(C)C)C2(O)CCCCC2)cc1 (stereo not shown) [venlafaxine] | – | – | – | – | – | – | – | 1 al (effect of 1 non-functional allele) ([1]; CYP2D6, (DREM%-DRIM%)/DREM%): 0.21; 2 al (effect of 2 non-functional alleles) ([1]; CYP2D6, (DREM%-DRPM%)/DREM%): 0.38; 2 al/1 al [1, 5]: 1.78; EM (%) dosing recommendation [1, 6]: 109%; IM (%) dosing recommendation [1, 7]: 86%; PM (%) dosing recommendation [1, 8]: 68%; UM (%) dosing recommendation [1, 9]: 130%

Further lines, with some results ahead:

1 al (effect of 1 non-functional allele) ([1]; human) | 2 al (effect of 2 non-functional alleles) ([1]; human) | 2 al/1 al ([1]; human) | EM (%) dosing recommendation ([1]; human) | IM (%) dosing recommendation ([1]; human) | PM (%) dosing recommendation ([1]; human) | UM (%) dosing recommendation ([1]; human) | SMILES | further results
0.09 | 0.29 | 3.10 | 107% | 97% | 76% | 126% | O=C(CCCN1CCC(O)(c2ccc(Cl)cc2)CC1)c1ccc(F)cc1 [haloperidol] | –
0.00 | 0.00 | – | 100% | 100% | 100% | 100% | COc1ccc2c(c1)N(C[C@H](C)CN(C)C)c1ccccc1S2 [levomepromazine] | –
0.35 | 0.72 | 2.02 | 127% | 82% | 36% | 173% | CNCCCC12CCC(c3ccccc31)c1ccccc12 [maprotiline] | 1 al (effect of 1 non-functional allele) ([2]; human): 0.00; 2 al (effect of 2 non-functional alleles) ([2]; human): 0.00; IM (%) dosing recommendation ([2]; human): 100%; PM (%) dosing recommendation ([2]; human): 100%; UM (%) dosing recommendation ([2]; human): 100%
−0.02 | −0.03 | – | 99% | 101% | 102% | 97% | CN1CCN2c3ncccc3Cc3ccccc3C2C1 (stereo not shown) [mirtazapine] | –
0.08 | 0.14 | 1.88 | 105% | 97% | 90% | 113% | CCc1nn(CCCN2CCN(c3cccc(Cl)c3)CC2)c(=O)n1CCOc1ccccc1 [nefazodone] | –
0.17 | 0.22 | 1.26 | 110% | 91% | 86% | 117% | CN1CCN(CCCN2c3ccccc3Sc3ccccc32)CC1 [perazine] | –
0.03 | 0.07 | – | 102% | 99% | 95% | 105% | O=c1[nH]c2ccccc2n1C1CCN(CCCC(c2ccc(F)cc2)c2ccc(F)cc2)CC1 [pimozide] | –
0.15 | 0.31 | 2.00 | 110% | 93% | 76% | 127% | O=c1n(CCCN2CCN(c3cccc(Cl)c3)CC2)nc2ccccn12 [trazadone] | –
0.22 | 0.46 | 2.04 | 116% | 90% | 63% | 142% | OCCN1CCN(CC/C=C2/c3ccccc3Sc3ccc(Cl)cc32)CC1 [zuclopenthixol] | –

Reference: US8589175B2, “Optimization and individualization of medication selection and dosing” (Children's Hospital Medical Center, priority 2005, dated 2013)
